Reference: US7163946B2 (Ligand Pharmaceuticals Incorporated, priority 2002, dated 2007)

How the values were obtained:
hPR [1] = biological target: T1, hPR (Homo sapiens, UniProt P06401); assay: hPR cotransfection assay in CV-1 cells, agonist mode; type: cell-based; conditions: for Emax: CV-1, CV-1 cells, read-out: hPR Agonist CV-1 Cells Eff. (%)
T1 sequence (P06401 1-933): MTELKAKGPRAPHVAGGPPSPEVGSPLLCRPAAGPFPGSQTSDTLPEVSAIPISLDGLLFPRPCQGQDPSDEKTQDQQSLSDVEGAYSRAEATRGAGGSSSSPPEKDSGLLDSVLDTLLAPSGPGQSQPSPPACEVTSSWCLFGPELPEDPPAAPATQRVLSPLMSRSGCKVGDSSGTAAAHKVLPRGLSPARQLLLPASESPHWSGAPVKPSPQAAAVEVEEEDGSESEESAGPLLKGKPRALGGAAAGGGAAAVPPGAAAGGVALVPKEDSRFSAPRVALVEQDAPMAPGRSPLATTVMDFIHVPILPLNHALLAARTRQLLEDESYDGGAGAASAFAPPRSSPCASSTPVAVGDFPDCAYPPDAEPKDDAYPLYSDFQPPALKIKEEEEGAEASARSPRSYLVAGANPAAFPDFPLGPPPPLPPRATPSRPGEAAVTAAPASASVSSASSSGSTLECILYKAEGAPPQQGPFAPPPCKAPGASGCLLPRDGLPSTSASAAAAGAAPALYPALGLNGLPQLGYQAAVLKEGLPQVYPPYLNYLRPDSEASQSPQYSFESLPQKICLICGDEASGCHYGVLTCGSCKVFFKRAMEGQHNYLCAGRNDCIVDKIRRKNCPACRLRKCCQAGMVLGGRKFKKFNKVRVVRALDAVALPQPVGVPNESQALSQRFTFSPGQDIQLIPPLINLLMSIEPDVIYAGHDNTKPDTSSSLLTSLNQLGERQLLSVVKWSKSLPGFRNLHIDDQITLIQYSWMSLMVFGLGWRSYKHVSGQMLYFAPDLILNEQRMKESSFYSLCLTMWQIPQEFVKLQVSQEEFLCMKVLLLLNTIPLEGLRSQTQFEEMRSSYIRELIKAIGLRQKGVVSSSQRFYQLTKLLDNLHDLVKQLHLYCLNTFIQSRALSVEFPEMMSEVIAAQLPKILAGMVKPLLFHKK
Procedure: (§1) Antagonist efficacy was determined as a function (%) of maximal inhibition of a reference agonist at EC50 concentration. All the cotransfection experiments were carried out in 96-well plates by automation (Beckman Biomomek automated workstation).

hPR [2] = biological target: T1, hPR; assay: hPR cotransfection assay in CV-1 cells, antagonist mode; type: cell-based; conditions: for Emax: CV-1, CV-1 cells, read-out: hPR Antagonist CV-1 Cells Eff. (%)
Procedure: as §1

hPR [3] = biological target: T2, hPR (Homo sapiens, UniProt P06401); assay: T47D alkaline phosphatase assay, agonist mode; type: cell-based; conditions: T47D human breast cancer cells; for Emax: T47D, read-out: hPR Agonist T47D cells Eff. (%)
T2 sequence (P06401 679-933 limits assumed): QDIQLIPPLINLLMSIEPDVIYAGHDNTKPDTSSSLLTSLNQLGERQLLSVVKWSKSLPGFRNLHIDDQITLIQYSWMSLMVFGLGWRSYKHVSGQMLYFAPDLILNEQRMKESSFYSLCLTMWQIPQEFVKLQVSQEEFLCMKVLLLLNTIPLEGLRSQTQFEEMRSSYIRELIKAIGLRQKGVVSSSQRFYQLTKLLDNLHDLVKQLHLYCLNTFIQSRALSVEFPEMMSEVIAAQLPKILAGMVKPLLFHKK
From the text: (§2) The potential tissue-selectivities of the selected analogues were examined by using the T47D alkaline phosphatase assay that was developed from human breast cancer cells with endogenous PRs.

hPR [4] = biological target: T2, hPR; assay: T47D alkaline phosphatase assay, antagonist mode; type: cell-based; conditions: T47D human breast cancer cells; for Emax: read-out: hPR Antagonists T47D Cells Eff. (%); for IC50: read-out: hPR Antagonists T47D Cells IC50
From the text: as §2

hPR-A = biological target: T3, hPR-A (Homo sapiens, UniProt P06401); assay: Receptor competitive binding assay; conditions: read-out: PR binding Ki
T3 sequence (P06401 1-769 isoform P06401-2): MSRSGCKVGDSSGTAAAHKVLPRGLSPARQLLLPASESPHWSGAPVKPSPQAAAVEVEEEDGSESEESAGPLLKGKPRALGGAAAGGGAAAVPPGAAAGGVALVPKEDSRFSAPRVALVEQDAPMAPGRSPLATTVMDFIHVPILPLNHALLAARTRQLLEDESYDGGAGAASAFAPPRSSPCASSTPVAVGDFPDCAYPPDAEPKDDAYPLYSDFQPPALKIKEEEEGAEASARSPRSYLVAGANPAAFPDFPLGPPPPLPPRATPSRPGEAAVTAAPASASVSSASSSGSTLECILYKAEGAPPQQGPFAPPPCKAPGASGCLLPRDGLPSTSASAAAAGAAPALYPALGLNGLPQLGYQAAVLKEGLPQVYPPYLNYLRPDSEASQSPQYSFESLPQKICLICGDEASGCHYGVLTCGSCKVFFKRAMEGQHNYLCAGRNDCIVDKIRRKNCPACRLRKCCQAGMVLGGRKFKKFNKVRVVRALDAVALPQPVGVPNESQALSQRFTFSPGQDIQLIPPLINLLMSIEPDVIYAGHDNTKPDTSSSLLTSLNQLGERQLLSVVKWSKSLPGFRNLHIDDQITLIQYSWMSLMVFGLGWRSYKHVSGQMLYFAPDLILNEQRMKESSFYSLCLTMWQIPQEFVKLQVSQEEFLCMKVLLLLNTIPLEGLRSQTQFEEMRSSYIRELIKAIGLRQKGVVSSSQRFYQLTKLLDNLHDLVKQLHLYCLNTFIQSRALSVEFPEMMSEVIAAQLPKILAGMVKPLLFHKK

immature rabbits = assay: McPhail (Clauberg) rabbit assay of progestational activity; type: in vivo; conditions: Oryctolagus cuniculus; estradiol-primed immature rabbits; glandular changes of the uterus; read-out: potency (MAD in mg/kg), minimum active dose
Procedure: The superiority of the 7,9-difluoro analogue compounds of the present invention was further characterized utilizing the McPhail rabbit model according to the following illustrative Examples. The Clauberg or McPhail assay is a classic assay utilizing rabbits to measure progestational activity. […] In this assay, immature rabbits are treated initially with estradiol, which induces growth in the uterus. This is followed by a progestin, which causes a large change in the glandular content of the uterus. It is this change in the glandular component which is a measure of the progestational activity of a progestin. The measurement of these glandular changes is carried out histologically using stained sections of the uterus. The in vivo comparison between the new 7,9-difluoro compounds and analogues with substitution patterns different from 7,9-difluoro (U.S. Pat. Nos. 5,693,646 and 5,696,127) is tabulated in Tables 7 and 8. The in vivo potency of the progestins is presented as the minimum active dose (MAD).

[5] = tested on: ovariectomized female rats; assay: Multi-endpoint adult rat model, uterus/breast tissue-selectivity; type: in vivo; conditions: ratio of relative efficacy to MPA in uterus verse in breast tissue at the same highest dose tested; estrone-treated ovariectomized rats, three days
From the text: In this assay, advantage is taken of the fact that in the uterus, estrogens induce a proliferation and increase in the epithelial cell height and uterine wet weight, which can be antagonized by progestins. In the breast, estrogens induce a proliferation of the ductal network while progestins stimulate the growth of the lobular-alveolar end buds, which grow from the distal end of the ducts. […] Proliferating cells or inhibition of proliferating cells were quantitated either by measurements of cell height in sectioned and stained tissue samples or, in the case of the breast, immuno-histochemically labeled Brdu incorporated nuclei.

[6] = relative to maximal response of progesterone as 100%
[7] = CV-1 cells, read-out: hPR Agonist CV-1 Cells EC50
[8] = maximal inhibition of reference agonist at EC50 concentration
[9] = Tables 3 and 4, values without footnote, read-out: hPR agonist potencies (EC50 in nM) in the cotransfection assay

Structure (SMILES)	EC50 (hPR [1]; [7])	IC50 (hPR [2]; CV-1 cells)	EC50 (hPR [3])	IC50 (hPR [4])	Ki (hPR-A)	minimal effective dose (immature rabbits)	uterus/breast tissue-selectivity [5]	also measured
COC1Oc2c(F)cc(F)cc2-c2ccc3c(c21)C(C)=CC(C)(C)N3 (racemic) [Compound 32, (±)-7,9-difluoro-5-methoxy-1,2-dihydro-2,2,4-trimethyl-5H-chromeno[3,4-f]quinoline]	> 10000 nM	75 nM	315 nM	250 nM	37 nM	–	–	Emax (hPR [1]; [6]): < 20%; Emax (hPR [2]; [8]): 76%; Emax (hPR [3]): 36%; Emax (hPR [4]): 35%
CC1=CC(C)(C)Nc2ccc3c(c21)C(CC(=O)c1ccccc1)Oc1c(F)cc(F)cc1-3 (racemic) [Compound 45, (±)-7,9-difluoro-5-(2-oxo-2-phenylethyl)-1,2-dihydro-2,2,4-trimethyl-5H-chromeno[3,4-f]quinoline]	> 10000 nM	42 nM	195 nM	> 10000 nM	18 nM	–	–	Emax (hPR [1]; [6]): < 20%; Emax (hPR [2]; [8]): 79%; Emax (hPR [3]): 77%; Emax (hPR [4]): < 20%
C#CCC1Oc2c(F)cc(F)cc2-c2ccc3c(c21)C(C)=CC(C)(C)N3 (racemic) [Compound 71, (±)-7,9-difluoro-5-(2-propynyl)-1,2-dihydro-2,2,4-trimethyl-5H-chromeno[3,4-f]quinoline]	–	–	–	–	–	< 0.5 mg/kg	–	–
CC1=CC(C)(C)Nc2ccc3c(c21)C(c1cc2ccccc2s1)Oc1c(F)cc(F)cc1-3 (single isomer, unassigned; (-)) [Compound 64, (−)-7,9-difluoro-5-(benzo[b]thien-2-yl)-1,2-dihydro-2,2,4-trimethyl-5H-chromeno[3,4-f]quinoline]	–	–	–	–	–	0.25 mg/kg	2.8	–
CC#CC1Oc2c(F)cc(F)cc2-c2ccc3c(c21)C(C)=CC(C)(C)N3 (single isomer, unassigned; (-)) [Compound 75, (−)-7,9-difluoro-5-(1-propynyl)-1,2-dihydro-2,2,4-trimethyl-5H-chromeno[3,4-f]quinoline]	–	–	–	–	–	< 0.5 mg/kg	4.2	–
C#C[C@]1(O)CC[C@H]2[C@@H]3CCC4=CC(=O)CC[C@@H]4[C@H]3C(=C)C[C@@]21CC [3-ketodesogestrel, reference compound]	0.1 nM	> 10000 nM	0.2 nM	> 10000 nM	0.3 nM	–	–	hPR Agonist CV-1 Cells Eff. (%) (hPR [1]; CV-1 cells, relative to maximal response of progesterone as 100%): 190%; hPR Antagonist CV-1 Cells Eff. (%) (hPR [2]; CV-1 cells, maximal inhibition of reference agonist at EC50 concentration): na (na = not active (i.e. efficacy of <20 and potency of >10,000)); hPR Agonist T47D cells Eff. (%) (hPR [3]): 94%; hPR Antagonists T47D Cells Eff. (%) (hPR [4]): na (na = not active (i.e. efficacy of <20 and potency of >10,000))
CC1=CC(C)(C)Nc2ccc3c(c21)/C(=C/c1ccccc1F)Oc1c(F)cc(F)cc1-3 [Compound 12, 7,9-difluoro-5(Z)-(2-fluorobenzylidene)-1,2-dihydro-2,2,4-trimethyl-5H-chromeno[3,4-f]quinoline]	–	–	–	–	–	0.5 mg/kg	–	EC50 (hPR [1]; [9]): 2.55 nM
CC1=CC(C)(C)Nc2ccc3c(c21)/C(=C/C#N)Oc1c(F)cc(F)cc1-3 [Compound 24, 7,9-difluoro-5(Z)-cyanomethylidene-1,2-dihydro-2,2,4-trimethyl-5H-chromeno[3,4-f]quinoline]	9.4 nM	> 10000 nM	79 nM	830 nM	58 nM	–	–	Emax (hPR [1]; [6]): 52%; Emax (hPR [2]; [8]): < 20%; Emax (hPR [3]): 72%; Emax (hPR [4]): 26%
CC1=CC(C)(C)Nc2ccc3c(c21)C(c1ccc(Cl)c(C)c1)Oc1ccc(F)cc1-3 (stereo not drawn) [Formula I X=9-F 4-Cl-3-Me-Ph, reference compound]	–	–	–	–	–	1 mg/kg	–	–
CC1=CC(C)(C)Nc2ccc3c(c21)C(c1cccc(C(F)(F)F)c1)Oc1ccccc1-3 (stereo not drawn) [Formula I X=H 3-CF3-Ph, reference compound]	–	–	–	–	–	–	3.5	–
CC1=CC(C)(C)Nc2ccc3c(c21)C(c1ccc(Cl)cc1)Oc1ccccc1-3 (stereo not drawn) [Formula I X=H 4-Cl-Ph, reference compound]	–	–	–	–	–	–	1.5	–
CC1=CC(C)(C)Nc2ccc3c(c21)/C(=C/c1cccc(F)c1)Oc1ccc(F)cc1-3 [Formula II X=9-F 3-F-Ph, reference compound]	–	–	–	–	–	–	2.2	EC50 (hPR [1]; [9]): 7 nM
